The test system of assay [1] is subjects with isolated systolic hypertension. The experiment in a line: Omapatrilat in subjects with isolated systolic hypertension: trough seated blood pressure, forced- and elective-dose titration versus placebo. Type of assay: in vivo, human. The settings on record: for Δtrough seated diastolic blood pressure / Δtrough seated systolic blood pressure: week 9, change from baseline, trough 24±3 hours post dose; for percentage of normalized subjects (trough seated systolic blood pressure less than 140 mm Hg): week 9. How it is done: Omapatrilat was studied in subjects with isolated systolic hypertension (seated systolic blood pressure 160-199 mm Hg and diastolic blood pressure less than 90 after 4 weeks of single-blind placebo lead-in). Both a forced-dose titration (at Week 1) and an elective-dose titration (at Week 9) design were used to compare the change from baseline, relative to placebo, in trough (24±3 hours post dose) seated systolic blood pressure after 9 weeks and 13 weeks of once-daily oral administration of 3 dose regimens of omapatrilat. Treatment regimens consisted of omapatrilat 10 mg lead-in maintained at 10 mg at week 1, electively titrated to 20 mg at week 9 for subjects with a seated systolic blood pressure greater than or equal to 140 mm Hg, or omapatrilat 20 mg lead-in maintained at 20 mg at week 1, electively titrated to 40 mg at week 9 for subjects with a seated systolic blood pressure greater than or equal to 140 mm Hg, or omapatrilat 20 mg lead-in increased to 40 mg at week 1, electively titrated to 80 mg at week 9 for subjects with a seated systolic blood pressure greater than or equal to 140 mm Hg. Placebo was mock titrated at weeks 1 and week 9.
429 subjects were randomized. The mean age was 67 years, and mean baseline blood pressure was 169/82 mm Hg. The primary efficacy objective was to compare the change from baseline, relative to placebo, in trough (24±3 hours post dose) seated systolic blood pressure after 9 weeks of once-daily oral administration of 3 dose regimens of omapatrilat.

Another assay has as its system neutral endopeptidase. The assay can be described thus: Urinary atrial natriuretic peptide excretion rate in subjects with isolated systolic hypertension. Type of assay: in vivo, human. The conditions noted are these: once daily 80 mg, at 24 hours after dosing.
[2] abbreviates: omapatrilat 10/10 mg once-daily oral.
Where [3] appears, read: omapatrilat 20/20 mg once-daily oral.
Where [4] appears, read: omapatrilat 20/40 mg once-daily oral.

Take `O=C(N[C@H]1CCSC2CCC[C@@H](C(=O)O)N2C1=O)C(S)Cc1ccccc1` (relative stereo) [Omapatrilat, [4S-[4α(R*), 7α, 10aβ]]-octahydro-4-[(2-mercapto-1-oxo-3-phenylpropyl)amino]-5-oxo-7H-pyrido[2,1-b][1,3]thiazepine-7-carboxylic acid]: the “systolic and diastolic blood pressure reductions at trough versus placebo regimen” value in assay [1] (10/10/20 mg, 20/20/40 mg and 20/40/80 mg once-daily for 13 weeks, predominately elderly subjects) is “greater systolic blood pressure and diastolic blood pressure reductions at trough than a regimen of placebo”. In addition, the “systolic blood pressure reductions versus placebo” value in assay [1] (Week 13, after elective titration) is given as “Additional small reductions in systolic blood pressure versus placebo”. For the same compound, the “Δtrough seated diastolic blood pressure” value in assay [1] (setting [2]) is listed as −1.8; in assay [1] (setting [3]) it was −2.6; in assay [1] (setting [4]), −4.6. For the same compound, the “Δtrough seated systolic blood pressure” value in assay [1] (setting [2]) is −15.9; in assay [1] (setting [3]) it was −23.1; in assay [1] (setting [4]), −26.1. The “percentage of normalized subjects (trough seated systolic blood pressure less than 140 mm Hg)” value is listed as 28% in assay [1] (omapatrilat 10/10 mg), 51% in assay [1] (omapatrilat 20/20 mg) and 47% in assay [1] (omapatrilat 20/40 mg). For the same compound, the “systolic and diastolic blood pressure reductions versus placebo regimen” value in assay [1] (week 9, all 3 omapatrilat regimens) was “greater systolic and diastolic blood pressure reductions than the placebo regimen”. The “urinary atrial natriuretic peptide excretion rate” value with neutral endopeptidase was “persistent elevation”.

For the origin of these results see patent US20020004500A1, “Vasopeptidase Inhibitors to treat isolated systolic hypertension” (priority 2000, published 2002).
